Laboratory results: patent EP0063238A1, “An efficiency-improving agent for feed and a preventive and treating agent for coccidiosis” (KAKEN PHARMACEUTICAL CO., LTD., priority 1981, dated 1982)

Tests used:
[1] = system: Eimeria tenellum; assay: Preventive and treating activity against coccidiosis in a domestic fowl; assay type: in vivo; settings: for Relation rate of the increase in the body weight: noninfection control = 100; for OPG: number of oocysts in 1 g of stool, 7 days after the inoculation; for Death rate: white leghorn chickens inoculated p.o. with oocysts; for preventive and treating activity against coccidiosis: conclusion in text from Table 5
Protocol: The preventive and treating activity against coccidiosis in a domestic fowl Domestic fowls tested: white leghorns Basal feed:
Method: • Fifty male white leghorn chickensl4 days of age were divided into 5 groups of 10 each. To the basal feed were added 50 and 100 ppm each of 5057A and 5057B. Infection with coccidiosis was done by inoculating […] per chicken of spore-forming oocysts of Eimeria tenellum directly p.o. into the crop of the chickens.
Groupsl - 4 were reared with the feeds containing predetermined concentrations of the 5057 substances, starting from 1 day before the inoculation with oocysts. Group 5 is an infection control that was inoculated with oocysts and reared with the basal feed containing no agents tested and Group 6 is a noninfection control. After 7 days after the inoculation with oocysts, the number of oocysts (OPG) in 1 g of stool was counted.

[2] = Feed efficiency test on domestic fowls; assay type: in vivo; settings: 70 days; for The average increase in the body weight during the test period / The average ingested amount of feed during the test period: chickens; for The rate of feed requirement: ingested feed / body weight increase; for The improved ratio of the rate of feed requirement: versus no addition
Protocol: Feed efficiency test on domestic fowls
Domestic fowls tested: species used exclusively for broiler (Aber Acres species) Basal feed:
Method: • Fifty newborn chickens were divided into 5 groups of 10 each in such a way that the average body weight is the same in each group. Premixes of 5057A and 5057B were added to the foregoing basal feed so that the contents of 5057A and 5057B are .40 ppm and 80 ppm, respectively. This feed was administered to the animals over the period of 70 days, and the body weight and the ingested amount of the feed were measured.

[3] = Acute toxicity test; settings: mouse, in vivo, mice
Protocol: An acute toxicity test was carried out with mice. As a result, the LD50 value of the 5057A and 5057B substances is 50 mg/kg i.p. and 50 mg/kg or more p.o. [drawing 14] [drawing 15]

[4] = Feed efficiency test on swine; assay type: in vivo, swine (landrace); settings: for The rate of feed requirement / The average increase in the body weight during the test period / The average ingested amount of feed during the test period / The improved ratio of the rate of feed requirement: 12 weeks; for The average increase in the body weight during the test period / The average ingested amount of feed during the test period: young pigs; for The improved ratio of the rate of feed requirement: versus no addition; for The total number of days of diarrheal stool in each group / The total number of days during the test period in each group: 6 pigs, period of 4 weeks
Protocol: Feed efficiency test on swine
Method: • Thirty young pigs were divided into 5 groups of 6 each in such a way that the average body weight is the same in each group. To the basal feed were added 0, 25, and 50 ppm each of 5057A and 5057B. The resulting basal feeds were administered over the period of 12 weeks and the body weight and the ingested amount of the feeds were measured. The total number of days that the pigs suffered from diarrhea during the period of 4 weeks was counted.

[5] = Feed efficiency test on a ruminant; assay type: in vivo, Cattle (Holstein); settings: 240 days; for The average increase in the body weight during the test period: castrated Holstein oxen; for The improved ratio of the rate of concentrated feed requirement: versus no addition
Protocol: Feed efficiency test on a ruminant Cattle tested: Holstein
Basal feed: • Concentrated feed: [formula]
(§1) Method: • Twenty five castrated Holstein oxen 9 months of age were divided into 5 groups of 5 each in such a way that the average body weight is almost the same in each group. Concentrated basal feeds to which 0, 10, and 20 ppm each of 5057A and 5057B had been added were each administered over the period of 240 days. As a crude feed, 1 kg per animal of straw of rice plants were administered.

[6] = Propionic acid/acetic acid ratio in gastric juice from the rumen of the oxen tested; assay type: in vivo, Cattle (Holstein); settings: for The propionic acid concentration/The acetic acid concentration (the average value): rumen gastric juice; for ratio between propionic acid/acetic acid in the gastric juice in the rumen: as compared with the case of no addition
Protocol: as §1
The administration of the feeds to which the present substances had been added improved the utilization rate of the concentrated feed by 10 - 17% and the increased amount of the body weight by 3 - 8%. The gastric juice from the rumen of the oxen tested was collected and measured for the concentrations of acetic and propionic acids, thus the ratio between them being calculated.

[7] = 10 ppm, 1 day after the administration
[8] = 10 ppm, 21 days after the administration
[9] = 10 ppm, 56 days after the administration
[10] = 20 ppm, 1 day after the administration
[11] = 20 ppm, 21 days after the administration
[12] = 20 ppm, 56 days after the administration

CCC(C(=O)C(C)C(O)C(C)C1OC(O)(C(C)C(=O)O)C(C)CC1C)C1OC(C)(C2(O)OC(CC)(C(C)O)CC2C)CC1C (stereo not drawn) [5057A]
Relation rate of the increase in the body weight ([1]; 50 ppm in feed): 104%
OPG ([1]; 50 ppm in feed): 0.01 x 10^4
Death rate ([1]; 50 ppm in feed): 0%
Relation rate of the increase in the body weight ([1]; 100 ppm in feed): 103%
OPG ([1]; 100 ppm in feed): 0 x 10^4
Death rate ([1]; 100 ppm in feed): 0%
preventive and treating activity against coccidiosis [1]: have a preventive and treating activity against coccidiosis
The average increase in the body weight during the test period ([2]; 40 ppm in feed): 2.54 kg
The average ingested amount of feed during the test period ([2]; 40 ppm in feed): 5.59 kg
The rate of feed requirement ([2]; 40 ppm in feed): 2.201
The improved ratio of the rate of feed requirement ([2]; 40 ppm in feed): 4.3%
The average increase in the body weight during the test period ([2]; 80 ppm in feed): 2.55 kg
The average ingested amount of feed during the test period ([2]; 80 ppm in feed): 5.63 kg
The rate of feed requirement ([2]; 80 ppm in feed): 2.218
The improved ratio of the rate of feed requirement ([2]; 80 ppm in feed): 4.0%
LD50 ([3]; ip): 50 mg/kg
LD50 ([3]; po): ≥ 50 mg/kg
The rate of feed requirement ([4]; 25 ppm in feed): 2.353
The average increase in the body weight during the test period ([4]; 25 ppm in feed): 45.35 kg
The average ingested amount of feed during the test period ([4]; 25 ppm in feed): 106.7 kg
The improved ratio of the rate of feed requirement ([4]; 25 ppm in feed): 4.3%
The total number of days of diarrheal stool in each group / The total number of days during the test period in each group ([4]; 25 ppm in feed): 21/168
The rate of feed requirement ([4]; 50 ppm in feed): 2.287
The average increase in the body weight during the test period ([4]; 50 ppm in feed): 50.93 kg
The average ingested amount of feed during the test period ([4]; 50 ppm in feed): 116.5 kg
The improved ratio of the rate of feed requirement ([4]; 50 ppm in feed): 7.0%
The total number of days of diarrheal stool in each group / The total number of days during the test period in each group ([4]; 50 ppm in feed): 11/168
The average ingested amount of concentrated feed during the test period ([5]; 10 ppm in concentrated feed): 2413 kg
The rate of concentrated feed requirement ([5]; 10 ppm in concentrated feed): 8.904
The average increase in the body weight during the test period ([5]; 10 ppm in concentrated feed): 271 kg
The improved ratio of the rate of concentrated feed requirement ([5]; 10 ppm in concentrated feed): 10.2%
The average ingested amount of concentrated feed during the test period ([5]; 20 ppm in concentrated feed): 2365 kg
The rate of concentrated feed requirement ([5]; 20 ppm in concentrated feed): 8.446
The average increase in the body weight during the test period ([5]; 20 ppm in concentrated feed): 280 kg
The improved ratio of the rate of concentrated feed requirement ([5]; 20 ppm in concentrated feed): 14.8%
The propionic acid concentration/The acetic acid concentration (the average value) [6, 7]: 0.80
The propionic acid concentration/The acetic acid concentration (the average value) [6, 8]: 0.73
The propionic acid concentration/The acetic acid concentration (the average value) [6, 9]: 0.78
The propionic acid concentration/The acetic acid concentration (the average value) [6, 10]: 0.83
The propionic acid concentration/The acetic acid concentration (the average value) [6, 11]: 0.96
The propionic acid concentration/The acetic acid concentration (the average value) [6, 12]: 0.86
ratio between propionic acid/acetic acid in the gastric juice in the rumen [6]: increases

CCC(C(=O)C(C)C(O)C(C)C1OC(O)(C(C)C(=O)O)C(C)CC1C)C1OC(C)(C2(O)OC(CC)(C(O)CC)CC2C)CC1C (stereo not drawn) [5057B]
Relation rate of the increase in the body weight ([1]; 50 ppm in feed): 106%
OPG ([1]; 50 ppm in feed): 0 x 10^4
Death rate ([1]; 50 ppm in feed): 0%
Relation rate of the increase in the body weight ([1]; 100 ppm in feed): 106%
OPG ([1]; 100 ppm in feed): 0 x 10^4
Death rate ([1]; 100 ppm in feed): 0%
preventive and treating activity against coccidiosis [1]: have a preventive and treating activity against coccidiosis
The average increase in the body weight during the test period ([2]; 40 ppm in feed): 2.67 kg
The average ingested amount of feed during the test period ([2]; 40 ppm in feed): 5.74 kg
The rate of feed requirement ([2]; 40 ppm in feed): 2.150
The improved ratio of the rate of feed requirement ([2]; 40 ppm in feed): 6.6%
The average increase in the body weight during the test period ([2]; 80 ppm in feed): 2.62 kg
The average ingested amount of feed during the test period ([2]; 80 ppm in feed): 5.67 kg
The rate of feed requirement ([2]; 80 ppm in feed): 2.164
The improved ratio of the rate of feed requirement ([2]; 80 ppm in feed): 6.0%
LD50 ([3]; ip): 50 mg/kg
LD50 ([3]; po): ≥ 50 mg/kg
The rate of feed requirement ([4]; 25 ppm in feed): 2.348
The average increase in the body weight during the test period ([4]; 25 ppm in feed): 47.62 kg
The average ingested amount of feed during the test period ([4]; 25 ppm in feed): 111.8 kg
The improved ratio of the rate of feed requirement ([4]; 25 ppm in feed): 4.6%
The total number of days of diarrheal stool in each group / The total number of days during the test period in each group ([4]; 25 ppm in feed): 18/168
The rate of feed requirement ([4]; 50 ppm in feed): 2.263
The average increase in the body weight during the test period ([4]; 50 ppm in feed): 51.26 kg
The average ingested amount of feed during the test period ([4]; 50 ppm in feed): 116.0 kg
The improved ratio of the rate of feed requirement ([4]; 50 ppm in feed): 8.0%
The total number of days of diarrheal stool in each group / The total number of days during the test period in each group ([4]; 50 ppm in feed): 6/168
The average ingested amount of concentrated feed during the test period ([5]; 10 ppm in concentrated feed): 2406 kg
The rate of concentrated feed requirement ([5]; 10 ppm in concentrated feed): 8.813
The average increase in the body weight during the test period ([5]; 10 ppm in concentrated feed): 273 kg
The improved ratio of the rate of concentrated feed requirement ([5]; 10 ppm in concentrated feed): 11.1%
The average ingested amount of concentrated feed during the test period ([5]; 20 ppm in concentrated feed): 2354 kg
The rate of concentrated feed requirement ([5]; 20 ppm in concentrated feed): 8.289
The average increase in the body weight during the test period ([5]; 20 ppm in concentrated feed): 284 kg
The improved ratio of the rate of concentrated feed requirement ([5]; 20 ppm in concentrated feed): 16.4%
The propionic acid concentration/The acetic acid concentration (the average value) [6, 7]: 0.79
The propionic acid concentration/The acetic acid concentration (the average value) [6, 8]: 0.76
The propionic acid concentration/The acetic acid concentration (the average value) [6, 9]: 0.77
The propionic acid concentration/The acetic acid concentration (the average value) [6, 10]: 0.83
The propionic acid concentration/The acetic acid concentration (the average value) [6, 11]: 1.00
The propionic acid concentration/The acetic acid concentration (the average value) [6, 12]: 0.93
ratio between propionic acid/acetic acid in the gastric juice in the rumen [6]: increases
